For one series, the target named is T1, human CRF2α receptor (Homo sapiens, UniProt Q13324).
T1 construct: expressed in transfected cells; host or cells: TeloHEAC
T1 sequence (Q13324 1-411): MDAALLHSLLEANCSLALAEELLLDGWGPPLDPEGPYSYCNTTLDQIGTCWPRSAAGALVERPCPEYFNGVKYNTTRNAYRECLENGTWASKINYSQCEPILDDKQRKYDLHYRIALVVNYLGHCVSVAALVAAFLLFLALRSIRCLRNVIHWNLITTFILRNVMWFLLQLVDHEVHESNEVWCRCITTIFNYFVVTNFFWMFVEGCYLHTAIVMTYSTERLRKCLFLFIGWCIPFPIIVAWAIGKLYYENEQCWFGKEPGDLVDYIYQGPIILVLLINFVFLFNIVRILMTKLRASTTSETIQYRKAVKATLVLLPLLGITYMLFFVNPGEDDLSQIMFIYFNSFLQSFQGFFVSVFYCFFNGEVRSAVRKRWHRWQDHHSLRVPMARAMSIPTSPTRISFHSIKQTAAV
In words: cAMP agonism at human CRF2 α receptor in TeloHEAC cells (Example 7). Type of series: cell-based. Conditions: cAMP HTRF, TeloHEAC cells stably expressing human CRF2 α. The gist of the method:
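Steps: thaw and wash cells; suspend in 1×HBSS, 20 mM HEPES, 0 or 0.1% HSA, 2 mM IBMX; add compound, 30 min RT; lyse with HTRF reagents, 1 h; read 665/620 nm. EC50 calculated, E% versus 1000 nM UCN2.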
Background: TR-FRET usually uses a lanthanide donor and a delayed reading to cut background.

Series [1] in a line: Physical stability, Thioflavin T fibrillation assay (Example 14). The series is classed as physicochemical. Conditions: 3 mg/ml, 37° C. shaking. As for the experimental part:
The physical stability of the compounds was assessed using a Thioflavin T (ThT) assay.
The time course for fibril formation often follows the characteristic shape of a sigmoidal curve and can be separated into three regions: a lag phase, a fast growth phase, and a plateau phase. The typical fibril formation process starts with the lag phase in which the amount of partially folded peptide turned into fibrils is not significant enough to be detected. The lag-time corresponds to the time the critical mass of the nucleus is built. Afterwards, a drastic elongation phase follows and fibril concentration increases rapidly. Therefore, by measuring the increase in fluorescence intensity attributable to ThT as well as the lag time of the increase, the fibrillation tendency of a peptide can be determined, thereby providing a measure of the physical stability of the peptide.
In the present study, test compounds were diluted in buffer to a final concentration of 3 mg/ml.
The fibrillation tendencies of the peptides were determined under stress using a Fluoroskan Ascent FL or Fluoroskan Ascent fluorometer. […] Plates were sealed with Scotch Tape (Quiagen). Samples were stressed by continuous cycles of 10 s shaking at 960 rpm and 50 s rest period at 37° C. Fibril development was monitored by measuring fluorescence intensity every 20 minutes. For each sample, eight replicates were tested.

The target of a further series is T2, CRF1R receptor (Homo sapiens, UniProt P34998).
T2 construct: host or cells: CHO-K1 clone 2
T2 sequence (P34998 24-415): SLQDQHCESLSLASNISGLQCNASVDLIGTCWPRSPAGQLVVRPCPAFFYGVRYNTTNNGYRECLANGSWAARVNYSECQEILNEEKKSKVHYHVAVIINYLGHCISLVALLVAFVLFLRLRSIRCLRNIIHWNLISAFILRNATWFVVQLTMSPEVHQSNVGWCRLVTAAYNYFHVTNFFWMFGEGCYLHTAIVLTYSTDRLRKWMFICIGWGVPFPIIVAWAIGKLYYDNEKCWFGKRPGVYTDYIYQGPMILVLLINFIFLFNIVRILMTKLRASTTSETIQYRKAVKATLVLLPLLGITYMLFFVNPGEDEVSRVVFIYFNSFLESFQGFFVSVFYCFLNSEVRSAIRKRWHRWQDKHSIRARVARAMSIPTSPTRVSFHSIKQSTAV
In words: cAMP activity at anti-target CRF1R, CRF1R-overexpression CHO cell line (Example 9). Type of series: cell-based. Conditions: CRF1R-overexpression CHO cell line; for EC50: 0% HSA; for Emax: read-out: Emax (%). The gist of the method: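 cAMP accumulation was read by HTRF after 30 min at room temperature of compound treatment. Cells were cryopreserved CHO cells overexpressing CRF1R, plated at 2000/well in IBMX (2 mM)-containing HBSS/HEPES buffer with 0 or 0.1% HSA. Activity was normalized to 1000 nM UCN2 as 100%.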

Series [2] in a line: Solubility in buffer systems by UPLC-UV (Example 13). The series is classed as physicochemical. An outline of the steps: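 The supernatant was diluted 1:10 and quantified by UPLC-UV peak area against a reference standard curve, correcting for sequence-based extinction coefficients.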
A further series relates to rat CRF2R α receptor. As to the kind of experiment: cAMP agonism at rat CRF2R α receptor in A7R5 rat aortic smooth muscle cells (Example 8). Type of series: cell-based. Conditions: cAMP HTRF, A7R5 rat aortic smooth muscle cell line, 0% HSA. An outline of the steps:
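Thawed cryopreserved A7R5 cells in HBSS/20 mM HEPES (0 or 0.1% HSA) with 2 mM IBMX, 2000 cells/well, were exposed to compound for 30 min at room temperature. cAMP was read by HTRF (665/620 nm ratio) after 1 h with lysis reagents. Activity was normalised to 1000 nM urocortin 2 as 100%, and EC50 was taken as the concentration giving 50% of maximal activation.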

Where [3] appears, read: 0% HSA, read-out: EC50 [nM], 0% HSA.
[4] abbreviates: Buffer A: 100 mM acetate buffer, pH 4.5.
The mark [5] stands for this setting: pH 4.5, Solubility in Buffer B [mg/ml].
Where [6] appears, read: Buffer B: 100 mM acetate buffer, pH 4.5, 2.7 mg/ml m-cresol.

Like-named read-outs stand apart in the source and are kept apart here. Starred links: 1 amine or outer side, 2 acyl side, 3 side chain; linkers in the order of their positions; H or OH if unused. Non-standard residues stand in square brackets, D forms with d. Residues, ends and D or L forms follow the SMILES beside them. Groups on a side chain read outwards from the residue. *: point of attachment. C20 diacid = O=C(O)CCCCCCCCCCCCCCCCCCC(=O)*; γGlu = O=C(O)[C@H](CCC(=O)[*:2])N[*:1]; Palmitoyl = CCCCCCCCCCCCCCCC(=O)*; AEEA = NCCOCCOCC(=O)O

Data on three compounds can be found in US12679878B2, “CRF2 receptor agonists and their use in therapy” (SANOFI, priority 2020, dated 2026).

One may read the EC50 as the concentration needed to bring the measured effect to its halfway point. The term Emax denotes the maximal effect, on the per cent scale that the assay sets. Usually solubility stands for how much of the substance goes into solution per volume. For the compound `CCCCCCCCCCCCCCCC(=O)N[C@@H](CCC(=O)NCCCC[C@H](NC(=O)[C@H](CC(C)C)NC(=O)CNC(=O)[C@@H](NC(=O)[C@@H]1CCCN1C(=O)[C@@H](NC(=O)[C@H](CC(=O)O)NC(=O)[C@H](CC(C)C)NC(=O)[C@H](CO)NC(=O)[C@H](CC(C)C)NC(=O)[C@@H](NC(=O)[C@@H](N)[C@@H](C)CC)C(C)C)C(C)C)[C@@H](C)CC)C(=O)N[C@@H](CCC(N)=O)C(=O)N[C@@H](CCCCN)C(=O)N[C@@H](CC(C)C)C(=O)N[C@@H](CC(C)C)C(=O)N[C@@H](CCCCN)C(=O)N[C@@H](CCC(N)=O)C(=O)N[C@@H](CCC(=O)O)C(=O)N[C@@H](CCCCN)C(=O)N[C@@H](CCC(N)=O)C(=O)N[C@@H](CCC(=O)O)C(=O)N[C@@H](CCCCN)C(=O)N[C@@H](CCC(=O)O)C(=O)N[C@@H](CCCCN)C(=O)N[C@@H](CCC(N)=O)C(=O)N[C@@H](CCC(N)=O)C(=O)N[C@@H](C)C(=O)N[C@@H](CCC(=O)O)C(=O)N[C@H](C(=O)N[C@@H](CC(N)=O)C(=O)N[C@@H](C)C(=O)N[C@@H](CCCCN)C(=O)N[C@H](C(=O)N[C@@H](CC(C)C)C(=O)N[C@@H](C)C(=O)N[C@@H](CCC(N)=O)C(=O)N[C@H](C(N)=O)C(C)C)[C@@H](C)CC)[C@@H](C)O)C(=O)O` [compound 4] (H-IVLSLDVPIGLK([γGlu-Palmitoyl])QKLLKQEKQEKEKQQAETNAKILAQV-NH2; N-terminus assumed), the EC50 on human CRF2α receptor (setting [3]) was 0.04 nM. Moreover, in series [1] (setting [4]), the “Increase in FI (fluorescence intensity)” value is on record as “Yes” and the “Lag time” value stood at 18 h. For the same compound, at CRF1R receptor, the EC50 is over 1000 nM and the Emax is 17.4%. This compound displayed a solubility at 1 h in series [2] (setting [5]) of over 9.6 mg/mL.

Consider `CCCCCCCCCCCCCCCC(=O)N[C@@H](CCC(=O)NCCCC[C@H](NC(=O)[C@H](CC(C)C)NC(=O)[C@H](CCCCN)NC(=O)[C@@H](NC(=O)[C@@H]1CCCN1C(=O)[C@H](NC(=O)[C@H](CC(=O)O)NC(=O)[C@H](CC(C)C)NC(=O)[C@H](CO)NC(=O)[C@H](CC(C)C)NC(=O)[C@@H](NC(=O)[C@@H](N)[C@@H](C)CC)C(C)C)C(C)C)[C@@H](C)O)C(=O)N[C@@H](CCC(N)=O)C(=O)N[C@@H](CCCCN)C(=O)N[C@@H](CC(C)C)C(=O)N[C@@H](CC(C)C)C(=O)N[C@@H](CCCCN)C(=O)N[C@@H](CCC(N)=O)C(=O)N[C@@H](CCC(=O)O)C(=O)N[C@@H](CCCNC(=N)N)C(=O)N[C@@H](CCC(N)=O)C(=O)N[C@@H](CCCNC(=N)N)C(=O)N[C@@H](CCCCN)C(=O)N[C@@H](CCC(=O)O)C(=O)N[C@@H](CCCNC(=N)N)C(=O)N[C@@H](CCC(=O)O)C(=O)N[C@@H](CCC(N)=O)C(=O)N[C@@H](C)C(=O)N[C@@H](CCC(=O)O)C(=O)N[C@@H](CCCCN)C(=O)N[C@@H](CC(N)=O)C(=O)N[C@@H](C)C(=O)N[C@@H](CCCNC(=N)N)C(=O)N[C@H](C(=O)N[C@@H](CC(C)C)C(=O)N[C@@H](C)C(=O)N[C@@H](CCCNC(=N)N)C(=O)N[C@H](C(N)=O)C(C)C)[C@@H](C)CC)C(=O)O` [compound 7] (H-IVLSLD[dV]PTKLK([γGlu-Palmitoyl])QKLLKQERQRKEREQAEKNARILARV-NH2), for which the EC50 on human CRF2α receptor (setting [3]) was 0.02 nM. In addition, the EC50 at human CRF2α receptor (0.1% HSA, read-out: EC50 [nM], 0.1% HSA) worked out at 0.03 nM. In series [1] (setting [6]), the “Increase in FI (fluorescence intensity)” value is “No” and the “Lag time” value is over 45 h. Moreover, the Emax at CRF1R receptor was determined as 58.6%. Also, the solubility at 1 h in series [2] (setting [5]) is over 8.9 mg/mL.

For the compound `CC[C@H](C)[C@H](NC(=O)[C@H](CCC(N)=O)NC(=O)[C@H](CCCCNC(=O)COCCOCCNC(=O)COCCOCCNC(=O)CC[C@H](NC(=O)CCCCCCCCCCCCCCCCCCC(=O)O)C(=O)O)NC(=O)[C@@H](NC(=O)[C@H](CCCCN)NC(=O)[C@@H](NC(=O)[C@@H]1CCCN1C(=O)[C@@H](NC(=O)[C@H](CC(=O)O)NC(=O)[C@H](CC(C)C)NC(=O)[C@H](CO)NC(=O)[C@H](CC(C)C)NC(=O)[C@@H](NC(=O)[C@@H](N)Cc1ccccc1)[C@@H](C)O)C(C)C)[C@@H](C)O)[C@@H](C)CC)C(=O)N[C@@H](CC(C)C)C(=O)N[C@@H](CC(C)C)C(=O)N[C@@H](CCCCN)C(=O)N[C@@H](CCC(N)=O)C(=O)N[C@@H](CCC(N)=O)C(=O)N[C@@H](CCCCN)C(=O)N[C@@H](CCC(N)=O)C(=O)N[C@@H](CCCCN)C(=O)N[C@@H](CCCCN)C(=O)N[C@@H](CCC(=O)O)C(=O)N[C@@H](CCCNC(=N)N)C(=O)N[C@@H](CCC(N)=O)C(=O)N[C@@H](CCC(N)=O)C(=O)N[C@@H](C)C(=O)N[C@@H](CCC(=O)O)C(=O)N[C@@H](CCCCN)C(=O)N[C@@H](CC(N)=O)C(=O)N[C@@H](CCCCN)C(=O)N[C@@H](CCC(N)=O)C(=O)N[C@@H](CC(C)C)C(=O)N[C@@H](CC(C)C)C(=O)N[C@@H](CCC(=O)O)C(=O)N[C@@H](CCCNC(=N)N)C(=O)N[C@H](C(N)=O)C(C)C` [compound 60] (H-FTLSLDVPTKIK([AEEA-AEEA-γGlu-C20 diacid])QILLKQQKQKKERQQAEKNKQLLERV-NH2), the EC50 is 0.48 nM at human CRF2α receptor (setting [3]), over 1000 nM on CRF1R receptor and 1.35 nM in the series on rat CRF2R α receptor. Besides, the “Increase in FI (fluorescence intensity)” value in series [1] (setting [4]) and in series [1] (setting [6]) was “No” throughout. The “Lag time” value in series [1] (setting [4]) and in series [1] (setting [6]) was over 45 h in each case. For the same compound, at CRF1R receptor, the Emax turned out to be 4.84%. In addition, the solubility at 1 h in series [2] (setting [5]) was over 11.5 mg/mL; in series [2] (pH 7.4, Solubility in Buffer C [mg/ml]) it was over 11 mg/mL.
